Results reported in ChEMBL document CHEMBL2069255, “Synthesis and DNA binding properties of 1-(3-aminopropyl)-imidazole-containing triamide f-Im*PyIm: a novel diamino polyamide designed to target 5'-ACGCGT-3'” (Bioorg Med Chem Lett, 2012).
The source made the active and inactive calls. The calls are words filed in the database; no cut-off is given here.

Key:
Format in all cases: nucleic-acid assay
Nucleic Acid [1] = test: Binding affinity to ACGCGT DNA assessed as change in melting temperature by thermal denaturation assay
Nucleic Acid [2] = test: Binding affinity to AAATTT DNA by SPR assay
Nucleic Acid [3] = test: Binding affinity to ACGCGT DNA by SPR assay
Nucleic Acid [4] = test: Binding affinity to AAATTT DNA assessed as change in melting temperature by thermal denaturation assay
Nucleic Acid [5] = test: Binding affinity to ATGCAT DNA assessed as change in melting temperature by thermal denaturation assay
Nucleic Acid [6] = test: Binding affinity to ACGCGT DNA by ITC assay
Nucleic Acid [7] = test: Binding affinity to ACATGT DNA by SPR assay

With `CN(C)CCNC(=O)c1nc(NC(=O)c2cc(NC(=O)c3nc(NC=O)cn3CCCN)cn2C)cn1C` the ΔTm (Nucleic Acid [1]) was over 20 °C, the Ke (Nucleic Acid [2]) was 2.2 ×10⁶ /M and the Ke (Nucleic Acid [3]) was 2.3 ×10⁷ /M. The ΔTm (Nucleic Acid [4]) was 11 °C, the ΔTm (Nucleic Acid [5]) was 20 °C and the Activity (Nucleic Acid [6]) was “Active”. The Ke (Nucleic Acid [7]) was 3.7 ×10⁶ /M.
`CN(C)CCNC(=O)c1nc(NC(=O)c2cc(NC(=O)c3nc(NC=O)cn3C)cn2C)cn1C` was tested, and the ΔTm (Nucleic Acid [1]) was 7.8 °C, the Ke (Nucleic Acid [2]) was 5.3 ×10⁴ /M and the Ke (Nucleic Acid [3]) was 1.9 ×10⁸ /M. For the same compound, the ΔTm (Nucleic Acid [4]) was 1 °C and the Activity (Nucleic Acid [6]) was “Active”.
`CN(C)CCNC(=O)c1nc(NC(=O)c2cc(NC(=O)c3nc(NC=O)cn3C)cn2CCCN)cn1C` showed a ΔTm (Nucleic Acid [1]) of over 24 °C, a Ke (Nucleic Acid [3]) of 2.4 ×10⁸ /M and a ΔTm (Nucleic Acid [4]) of 10 °C. For the same compound, the ΔTm (Nucleic Acid [5]) was 24 °C and the Activity (Nucleic Acid [6]) was “Active”.
